A short description of one series: Solubility determination. The conditions noted are these: for Sol6: pH 6; for Sol7: pH 7. In short, it runs like this:
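Sample: TFA-salt peptide at 10 mg/ml target in 0.1 M Na diphosphate, pH 6.4 or 7.0, shaken 2 h RT, filtered, diluted to 1 mg/ml.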

The target in series [1] is T1, Human Neuropeptide Y2 Receptor (Homo sapiens, UniProt P49146).
T1 construct: purchased CHEMICON HTS066M
T1 sequence (P49146 1-381): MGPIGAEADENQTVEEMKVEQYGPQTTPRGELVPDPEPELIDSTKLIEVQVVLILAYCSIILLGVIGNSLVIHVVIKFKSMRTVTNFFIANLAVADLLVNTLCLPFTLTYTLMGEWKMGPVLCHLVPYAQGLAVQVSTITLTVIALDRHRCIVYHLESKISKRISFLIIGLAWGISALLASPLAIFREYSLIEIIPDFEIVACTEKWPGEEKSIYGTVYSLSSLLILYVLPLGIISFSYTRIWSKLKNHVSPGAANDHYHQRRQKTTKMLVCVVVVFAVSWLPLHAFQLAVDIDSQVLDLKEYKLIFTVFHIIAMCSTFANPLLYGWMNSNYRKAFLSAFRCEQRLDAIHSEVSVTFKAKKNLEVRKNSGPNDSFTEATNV
Put plainly: Radioligand binding competition assay (RLB). The conditions noted are these: Table 3, 125I-PYY(1-36) competition; read-out: Ki. The gist of the method: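 Competition binding used membranes expressing the receptor (0.5 μg protein/well) in 50 mM HEPES, 5 mM MgCl2, 1 mM CaCl2, pH 7.4 with 0.2% ovalbumin, incubated 2 h at room temperature with shaking. Bound radioligand was collected by filtration onto PEI-soaked GF/C filters and counted; IC50 from nonlinear sigmoidal fits.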

The record followed here is patent US12391737B2, “Soluble NPY2 receptor agonists” (Boehringer Ingelheim International GmbH, priority 2020, dated 2025).

pKi: −log10 of the molar value. *1 amine or outer side, *2 acyl side, *3 side chain or, on linkers, in order; H or OH if unused. Where a SMILES comes first, the peptide text is derived from it. Side-chain parts run from the residue outwards. The star is where a group is joined. C18 diacid = O=C(O)CCCCCCCCCCCCCCCCC(=O)*; γGlu = O=C(O)[C@H](CCC(=O)[*:2])N[*:1]; Isovaleryl = CC(C)CC(=O)*; Ahx = NCCCCCC(=O)O Where only a bound is given, the exact number is not on record here.

Consider `CC(C)CC(=O)N[C@@H](C)C(=O)N1CCC[C@H]1C(=O)N[C@@H](CCC(=O)O)C(=O)N[C@@H](CCCCNC(=O)CCCCCNC(=O)CC[C@H](NC(=O)CCCCCCCCCCCCCCCCC(=O)O)C(=O)O)C(=O)N1CCC[C@H]1C(=O)N[C@@H](CCC(=O)O)C(=O)N[C@@H](C)C(=O)N[C@@H](CC(=O)O)C(=O)N[C@@H](C)C(=O)N[C@@H](CO)C(=O)N[C@@H](CCC(=O)O)C(=O)N[C@@H](CCC(=O)O)C(=O)N[C@@H](CCC(=O)O)C(=O)N[C@@H](CC(C)C)C(=O)N[C@@H](CCC(N)=O)C(=O)N[C@@H](CCCNC(=N)N)C(=O)N[C@@H](Cc1ccc(O)cc1)C(=O)N[C@@H](Cc1ccc(O)cc1)C(=O)N[C@H](C(=O)N[C@@H](CO)C(=O)N[C@@H](CC(C)C)C(=O)N[C@@H](CCCNC(=N)N)C(=O)N[C@@H](Cc1c[nH]cn1)C(=O)N[C@@H](Cc1ccc(O)cc1)C(=O)N[C@@H](Cc1ccc(O)cc1)C(=O)N[C@@H](CC(N)=O)C(=O)N[C@@H](Cc1c[nH]c2ccccc12)C(=O)N[C@@H](CC(C)C)C(=O)N[C@H](C(=O)N[C@@H](CCCNC(=N)N)C(=O)N[C@@H](CCC(N)=O)C(=O)N[C@@H](CCCNC(=N)N)C(=O)N[C@@H](Cc1ccc(O)cc1)C(N)=O)[C@@H](C)O)C(C)C` [Compound 108, N{alpha-4}-(3-methylbutanoyl)-N{epsilon-7}-(6-[(4S)-4-carboxy-4-(17-carboxyheptadecanamido)butanamido]hexanoyl)-[4A,7K,9E,10A,14E,18Q,22V,28Y,30W,31L]-hPYY(4-36)], for which, in the series “Solubility determination”, the “Sol6” value is 8.6 mg/mL and the “Sol7” value was 8.0 mg/mL. Moreover, the negative logarithm of the Ki (pKi) (in general, the Ki on a negative log10 scale, so that one unit is a factor of ten) in series [1] was 8.56.

On to `CC(C)CC(=O)N[C@@H](C)C(=O)N1CCC[C@H]1C(=O)N[C@@H](CCC(=O)O)C(=O)N[C@@H](CCCCNC(=O)CCCCCNC(=O)CC[C@H](NC(=O)CCCCCCCCCCCCCCCCC(=O)O)C(=O)O)C(=O)N1CCC[C@H]1C(=O)N[C@@H](CCC(=O)O)C(=O)N[C@@H](CCC(=O)O)C(=O)N[C@@H](CC(=O)O)C(=O)N[C@@H](CC(C)C)C(=O)N[C@H](C(=O)N1CCC[C@H]1C(=O)N[C@@H](CCC(=O)O)C(=O)N[C@@H](CCC(=O)O)C(=O)N[C@@H](CC(C)C)C(=O)N[C@@H](CCC(N)=O)C(=O)N[C@@H](CCCNC(=N)N)C(=O)N[C@@H](Cc1ccc(O)cc1)C(=O)N[C@@H](Cc1ccc(O)cc1)C(=O)N[C@H](C(=O)N[C@@H](CO)C(=O)N[C@@H](CC(C)C)C(=O)N[C@@H](CCCNC(=N)N)C(=O)N[C@@H](Cc1c[nH]cn1)C(=O)N[C@@H](Cc1ccc(O)cc1)C(=O)N[C@@H](Cc1ccc(O)cc1)C(=O)N[C@@H](CC(N)=O)C(=O)N[C@@H](Cc1c[nH]c2ccccc12)C(=O)N[C@@H](CC(C)C)C(=O)N[C@H](C(=O)N[C@@H](CCCNC(=N)N)C(=O)N[C@@H](CCC(N)=O)C(=O)N[C@@H](CCCNC(=N)N)C(=O)N[C@@H](Cc1ccc(O)cc1)C(N)=O)[C@@H](C)O)C(C)C)[C@@H](C)O` [Compound 109, N{alpha-4}-(3-methylbutanoyl)-N{epsilon-7}-(6-[(4S)-4-carboxy-4-(17-carboxyheptadecanamido)butanamido]hexanoyl)-[4A,7K,9E,12L,13T,18Q,22V,28Y,30W,31L]-hPYY(4-36)], for which, in the series “Solubility determination”, the “Sol6” value turned out to be 10.0 mg/mL and the “Sol7” value is 8.5 mg/mL. For the same compound, the pKi in series [1] was 7.85.

For the compound `CC(C)CC(=O)N[C@@H](C)C(=O)N1CCC[C@H]1C(=O)N[C@@H](CCC(=O)O)C(=O)N[C@@H](CCCCNC(=O)CCCCCNC(=O)CC[C@H](NC(=O)CCCCCCCCCCCCCCCCC(=O)O)C(=O)O)C(=O)N1CCC[C@H]1C(=O)N[C@@H](CCC(=O)O)C(=O)N[C@@H](CCC(=O)O)C(=O)N[C@@H](CC(=O)O)C(=O)N[C@@H](C)C(=O)N[C@H](C(=O)N1CCC[C@H]1C(=O)N[C@@H](CCC(=O)O)C(=O)N[C@@H](CCC(=O)O)C(=O)N[C@@H](CC(C)C)C(=O)N[C@@H](CCC(N)=O)C(=O)N[C@@H](CCCNC(=N)N)C(=O)N[C@@H](Cc1ccc(O)cc1)C(=O)N[C@@H](Cc1ccc(O)cc1)C(=O)N[C@H](C(=O)N[C@@H](CCC(=O)O)C(=O)N[C@@H](CC(C)C)C(=O)N[C@@H](CCCNC(=N)N)C(=O)N[C@@H](Cc1c[nH]cn1)C(=O)N[C@@H](Cc1ccc(O)cc1)C(=O)N[C@@H](Cc1ccc(O)cc1)C(=O)N[C@@H](CC(N)=O)C(=O)N[C@@H](Cc1c[nH]c2ccccc12)C(=O)N[C@@H](CC(C)C)C(=O)N[C@H](C(=O)N[C@@H](CCCNC(=N)N)C(=O)N[C@@H](CCC(N)=O)C(=O)N[C@@H](CCCNC(=N)N)C(=O)N[C@@H](Cc1ccc(O)cc1)C(N)=O)[C@@H](C)O)C(C)C)[C@@H](C)O` [Compound 110, N{alpha-4}-(3-methylbutanoyl)-N{epsilon-7}-(6-[(4S)-4-carboxy-4-(17-carboxyheptadecanamido)butanamido]hexanoyl)-[4A,7K,9E,13T,18Q,22V,23E,28Y,30W,31L]-hPYY(4-36)], in “Solubility determination”, the “Sol6” value came to 10.0 mg/mL and the “Sol7” value is more than 10.0 mg/mL. The pKi in series [1] is 8.19.

As to `CC[C@H](C)[C@H](NC(=O)[C@H](CCC(=O)O)NC(=O)[C@H](CCC(=O)O)NC(=O)[C@@H]1CCCN1C(=O)[C@H](CCC(=O)O)NC(=O)[C@H](C)NC(=O)[C@H](C)NC(=O)[C@H](C)NC(=O)[C@H](CCC(=O)O)NC(=O)[C@@H]1CCCN1C(=O)[C@H](CCCCNC(=O)CCCCCNC(=O)CC[C@H](NC(=O)CCCCCCCCCCCCCCCCC(=O)O)C(=O)O)NC(=O)[C@H](C)NC(=O)[C@@H]1CCCN1C(=O)[C@H](C)NC(=O)CC(C)C)C(=O)N[C@@H](CCC(N)=O)C(=O)N[C@@H](CCCNC(=N)N)C(=O)N[C@@H](Cc1ccc(O)cc1)C(=O)N[C@@H](Cc1ccc(O)cc1)C(=O)N[C@H](C(=O)N[C@@H](CO)C(=O)N[C@@H](CC(C)C)C(=O)N[C@@H](CCCNC(=N)N)C(=O)N[C@@H](Cc1c[nH]cn1)C(=O)N[C@@H](Cc1ccc(O)cc1)C(=O)N[C@@H](Cc1ccc(O)cc1)C(=O)N[C@@H](CC(N)=O)C(=O)N[C@@H](Cc1c[nH]c2ccccc12)C(=O)N[C@@H](CC(C)C)C(=O)N[C@H](C(=O)N[C@@H](CCCNC(=N)N)C(=O)N[C@@H](CCC(N)=O)C(=O)N[C@@H](CCCNC(=N)N)C(=O)N[C@@H](Cc1ccc(O)cc1)C(N)=O)[C@@H](C)O)C(C)C` [Compound 111, N{alpha-4}-(3-methylbutanoyl)-N{epsilon-7}-(6-[(4S)-4-carboxy-4-(17-carboxyheptadecanamido)butanamido]hexanoyl)-[4A,6A,7K,9E,10A,11A,13E,17I,18Q,22V,28Y,30W,31L]-hPYY(4-36)] (Isovaleryl-APAK([Ahx-γGlu-C18 diacid])PEAAAEPEEIQRYYVSLRHYYNWLTRQRY-NH2), in “Solubility determination”, the “Sol6” value is 0.0 mg/mL and the “Sol7” value worked out at 0.0 mg/mL. Further, the negative logarithm of the Ki (pKi) in series [1] is 8.67.

Consider `CC[C@H](C)[C@H](NC(=O)[C@H](CCC(=O)O)NC(=O)[C@H](CCC(=O)O)NC(=O)[C@@H]1CCCN1C(=O)[C@H](CCC(=O)O)NC(=O)[C@H](C)NC(=O)[C@H](CC(=O)O)NC(=O)[C@H](CCC(=O)O)NC(=O)[C@H](CCC(=O)O)NC(=O)[C@@H]1CCCN1C(=O)[C@H](CCCCNC(=O)CCCCCNC(=O)CC[C@H](NC(=O)CCCCCCCCCCCCCCCCC(=O)O)C(=O)O)NC(=O)[C@H](CCC(=O)O)NC(=O)[C@@H]1CCCN1C(=O)[C@H](C)NC(=O)CC(C)C)C(=O)N[C@@H](CCC(N)=O)C(=O)N[C@@H](CCCNC(=N)N)C(=O)N[C@@H](Cc1ccc(O)cc1)C(=O)N[C@@H](Cc1ccc(O)cc1)C(=O)N[C@H](C(=O)N[C@@H](CO)C(=O)N[C@@H](CC(C)C)C(=O)N[C@@H](CCCNC(=N)N)C(=O)N[C@@H](Cc1c[nH]cn1)C(=O)N[C@@H](Cc1ccc(O)cc1)C(=O)N[C@@H](Cc1ccc(O)cc1)C(=O)N[C@@H](CC(N)=O)C(=O)N[C@@H](Cc1c[nH]c2ccccc12)C(=O)N[C@@H](CC(C)C)C(=O)N[C@H](C(=O)N[C@@H](CCCNC(=N)N)C(=O)N[C@@H](CCC(N)=O)C(=O)N[C@@H](CCCNC(=N)N)C(=O)N[C@@H](Cc1ccc(O)cc1)C(N)=O)[C@@H](C)O)C(C)C` [Compound 112, N{alpha-4}-(3-methylbutanoyl)-N{epsilon-7}-(6-[(4S)-4-carboxy-4-(17-carboxyheptadecanamido)butanamido]hexanoyl)-[4A,7K,9E,13E,17I,18Q,22V,28Y,30W,31L]-hPYY(4-36)], for which, in the series “Solubility determination”, the “Sol6” value was 9.9 mg/mL and the “Sol7” value is 10.0 mg/mL. Further, the negative-log Ki (pKi) in series [1] was 8.37.
